This passage reports T/C results from PubChem BioAssay AID330 (DTP/NCI, 2004).

Values joined by “and” are separate entries in the source; they are usually repeats but may differ in a detail not shown here. Identical values can stand only once. Toxic doses and inconclusive results are not listed.

The subject of this experiment is P388 leukemia ip, CD2F1 mice, survival T/C. In words: NCI In Vivo Anticancer Drug Screen. Data for tumor model P388 Leukemia (intraperitoneal) in CD2F1 (CDF1) mice. The settings on record: endpoint: median survival time, higher = longer survival. An outline of the steps:
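Mice carrying the transplanted tumor received test compound or vehicle. Survival was recorded in each group, and the value is the treated-group measurement divided by that of the vehicle-treated control group.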

[1] abbreviates: dose: 100.0 mg/kg/injection, schedule: Q04DX002 (ip), vehicle: saline with Tween-80.
The mark [2] stands for this setting: dose: 200.0 mg/kg/injection, schedule: Q04DX002 (ip), vehicle: saline with Tween-80.
Where [3] appears, read: dose: 25.0 mg/kg/injection, schedule: Q04DX002 (ip), vehicle: saline with Tween-80.
Where [4] appears, read: dose: 6.25 mg/kg/injection, schedule: Q04DX003 (ip), vehicle: other.
[5] abbreviates: dose: 12.5 mg/kg/injection, schedule: Q04DX003 (ip), vehicle: other.
Setting [6] is: dose: 25.0 mg/kg/injection, schedule: Q04DX003 (ip), vehicle: other.
[7] abbreviates: dose: 25.0 mg/kg/injection, schedule: Q01DX009 (ip), vehicle: saline with Tween-80.
[8] abbreviates: dose: 50.0 mg/kg/injection, schedule: Q01DX009 (ip), vehicle: saline with Tween-80.
The mark [9] stands for this setting: dose: 100.0 mg/kg/injection, schedule: Q01DX009 (ip), vehicle: saline with Tween-80.

On to `CCP(C)(=O)c1ccccc1` (stereo not given), for which the T/C under setting [1] was 96 % of control; the T/C under setting [2] was 97 % of control; the T/C (dose: 400.0 mg/kg/injection, schedule: Q04DX002 (ip), vehicle: saline with Tween-80) was 100 % of control.
Consider `CN(C)CSc1nc2ccccc2s1`, for which the T/C is 96 % of control (dose: 50.0 mg/kg/injection, schedule: Q01DX009 (ip), vehicle: Klucel (hydroxypropylcellulose) (HPC)); 94 % of control (dose: 100.0 mg/kg/injection, schedule: Q01DX009 (ip), vehicle: Klucel (hydroxypropylcellulose) (HPC)); 94 % of control (dose: 200.0 mg/kg/injection, schedule: Q01DX009 (ip), vehicle: Klucel (hydroxypropylcellulose) (HPC)); 95 % of control (dose: 400.0 mg/kg/injection, schedule: Q01DX009 (ip), vehicle: Klucel (hydroxypropylcellulose) (HPC)).
As to `COc1cc2c(cc1O)-c1c(cnn1-c1ccccc1)CCC2`, the T/C by setting is: (dose: 50.0 mg/kg/injection, schedule: Q01DX009 (ip), vehicle: saline) 119 % of control; (dose: 100.0 mg/kg/injection, schedule: Q01DX009 (ip), vehicle: saline) 118 % of control; (dose: 200.0 mg/kg/injection, schedule: Q01DX009 (ip), vehicle: saline) 94 % of control.
As for `Oc1ccc2[nH]c3cc4ccncc4cc3c2c1`, the T/C under setting [3] was 106 % of control; the T/C (dose: 50.0 mg/kg/injection, schedule: Q04DX002 (ip), vehicle: saline with Tween-80) is 97 % of control; the T/C under setting [1] was 122 % of control; the T/C under setting [2] was 115 % of control.
As for `CCN(CC)CCCC(C)NC(=O)Nc1cc(OC)cc2cccnc12` (stereo not given), the T/C by setting is: (dose: 12.5 mg/kg/injection, schedule: Q01DX005 (ip), vehicle: saline) 107 % of control; (dose: 25.0 mg/kg/injection, schedule: Q01DX005 (ip), vehicle: saline) 108 % of control; (dose: 50.0 mg/kg/injection, schedule: Q01DX005 (ip), vehicle: saline) 104 % of control and 106 % of control.
As for `C=C1c2cccc(O)c2C(O)=C2C(=O)[C@]3(O)C(O)=C(C(N)=O)C(=O)[C@@H](N(C)C)[C@@H]3[C@@H](O)[C@H]12`, the T/C is, setting by setting: (dose: 21.6 mg/kg/injection, schedule: Q01DX005 (ip), vehicle: Klucel (hydroxypropylcellulose) (HPC)) 105 % of control; (dose: 25.0 mg/kg/injection, schedule: Q01DX005 (ip), vehicle: Klucel (hydroxypropylcellulose) (HPC)) 105 % of control and 115 % of control; (dose: 36.0 mg/kg/injection, schedule: Q01DX005 (ip), vehicle: Klucel (hydroxypropylcellulose) (HPC)) 99 % of control and 106 % of control; (dose: 60.0 mg/kg/injection, schedule: Q01DX005 (ip), vehicle: Klucel (hydroxypropylcellulose) (HPC)) 102 % of control and 97 % of control; (dose: 166.66 mg/kg/injection, schedule: Q01DX005 (ip), vehicle: Klucel (hydroxypropylcellulose) (HPC)) 115 % of control; (dose: 166.67 mg/kg/injection, schedule: Q01DX005 (ip), vehicle: Klucel (hydroxypropylcellulose) (HPC)) 112 % of control. The T/C (dose: 400.0 mg/kg/injection, schedule: Q01DX005 (ip), vehicle: Klucel (hydroxypropylcellulose) (HPC)) was 87 % of control.
Take `Nc1cc(C(=O)Nc2ccc(C3=NCCN3)cc2)cc(C(=O)Nc2ccc(C3=NCCN3)cc2)c1`: the T/C (dose: 32.0 mg/kg/injection, schedule: Q01DX010 (ip), vehicle: saline) was 168 % of control.
Turning to `Cc1cc2ccccc2c2c(C)c3cccc[n+]3cc12`, the T/C is 114 % of control under setting [4], 110 % of control under setting [5] and 110 % of control under setting [6].
Take `COc1ccc(C2COc3c(ccc(O)c3O)C2)cc1` (stereo not given): the T/C reads like this: (dose: 60.0 mg/kg/injection, schedule: Q01DX005 (ip), vehicle: saline with Tween-80) 104 % of control; (dose: 120.0 mg/kg/injection, schedule: Q01DX005 (ip), vehicle: saline with Tween-80) 96 % of control; (dose: 240.0 mg/kg/injection, schedule: Q01DX005 (ip), vehicle: saline with Tween-80) 99 % of control.
Take `O=C(C=C(C(F)(F)F)C(F)(F)F)c1ccc(F)cc1`: the T/C is 109 % of control under setting [4]; 104 % of control under setting [5]; 110 % of control (dose: 16.5 mg/kg/injection, schedule: Q01DX009 (ip), vehicle: saline + alcohol); 106 % of control (dose: 25.0 mg/kg/injection, schedule: Q01DX009 (ip), vehicle: saline + alcohol); 118 % of control under setting [6]; 109 % of control (dose: 37.5 mg/kg/injection, schedule: Q01DX009 (ip), vehicle: saline + alcohol).
Regarding `c1ccc(CCNC2CCc3ccccc3C2)cc1` (stereo not given), the T/C (dose: 50.0 mg/kg/injection, schedule: Q01DX005 (ip), vehicle: saline with Tween-80) was 93 % of control.
Regarding `CCCC(=O)ON(C)C(=O)CCC`, the T/C was 96 % of control (dose: 100.0 mg/kg/injection, schedule: Q01DX005 (ip), vehicle: saline with Tween-80); 105 % of control (dose: 200.0 mg/kg/injection, schedule: Q01DX005 (ip), vehicle: saline with Tween-80); 117 % of control (dose: 400.0 mg/kg/injection, schedule: Q01DX005 (ip), vehicle: saline with Tween-80).
Turning to `CN=C1NC2C(C(=O)N(C)C(=O)N2C)C(=S)N1C` (stereo not given), the T/C runs as follows: (dose: 6.25 mg/kg/injection, schedule: Q04DX002 (ip), vehicle: saline with Tween-80) 100 % of control; (dose: 12.5 mg/kg/injection, schedule: Q04DX002 (ip), vehicle: saline with Tween-80) 104 % of control; under setting [3], 101 % of control.
For `CC1(C)COC(=O)/C1=C1\SC(=S)NC1=O`, the T/C (dose: 100.0 mg/kg/injection, schedule: Q04DX003 (ip), vehicle: saline) was 103 % of control and the T/C (dose: 200.0 mg/kg/injection, schedule: Q04DX003 (ip), vehicle: saline) was 92 % of control.
In the case of `CNC(=O)OCc1c(COC(=O)NC)c(-c2ccc(Cl)cc2)n(C)c1-c1ccccc1`, the T/C (dose: 12.5 mg/kg/injection, schedule: Q01DX009 (ip), vehicle: distilled water + Tween-80) is 154 % of control; the T/C (dose: 25.0 mg/kg/injection, schedule: Q01DX009 (ip), vehicle: distilled water + Tween-80) was 157 % of control and 172 % of control; the T/C (dose: 50.0 mg/kg/injection, schedule: Q01DX009 (ip), vehicle: distilled water + Tween-80) is 181 % of control.
With `BOc1ccc(C)cc1CN(C)Cc1ccccc1`, the T/C (dose: 100.0 mg/kg/injection, schedule: Q04DX002 (ip), vehicle: Klucel (hydroxypropylcellulose) (HPC)) is 103 % of control; the T/C (dose: 200.0 mg/kg/injection, schedule: Q04DX002 (ip), vehicle: Klucel (hydroxypropylcellulose) (HPC)) is 99 % of control; the T/C (dose: 400.0 mg/kg/injection, schedule: Q04DX002 (ip), vehicle: Klucel (hydroxypropylcellulose) (HPC)) is 104 % of control.
As to `ClCCn1cnc2c(SCc3ccccc3Cl)ncnc21`, the T/C is, setting by setting: under setting [7], 100 % of control; under setting [8], 90 % of control; under setting [9], 90 % of control.
For `Cc1ccc(S(=O)(=O)Cl)cc1Cl`, the T/C was 101 % of control under setting [7], 102 % of control under setting [8] and 101 % of control under setting [9].
For `CNCC(=O)Nc1ccc2c(c1)C(=O)c1ccc(NC(=O)CNC)cc1C2=O`, the T/C (dose: 94.75 mg/kg/injection, schedule: Q01DX001 (ip), vehicle: suspension in saline) was 110 % of control.
As for `O=c1cnn(C2OC(CO)C(O)C2O)c(=O)[nH]1` (stereo not given), the T/C by setting is: (dose: 12.5 mg/kg/injection, schedule: Q01DX009 (ip), vehicle: Klucel (hydroxypropylcellulose) (HPC)) 118 % of control and 120 % of control; (dose: 25.0 mg/kg/injection, schedule: Q01DX009 (ip), vehicle: Klucel (hydroxypropylcellulose) (HPC)) 109 % of control and 110 % of control.
As to `NCCc1c[nH]c2ccc(O)cc12` (tested in a mixture with another compound), the T/C by setting is: (dose: 50.0 mg/kg/injection, schedule: Q01DX009 (ip), vehicle: other) 113 % of control; (dose: 60.0 mg/kg/injection, schedule: Q01DX005 (ip), vehicle: saline) 102 % of control; (dose: 100.0 mg/kg/injection, schedule: Q01DX009 (ip), vehicle: other) 109 % of control; (dose: 120.0 mg/kg/injection, schedule: Q01DX005 (ip), vehicle: saline) 100 % of control; (dose: 200.0 mg/kg/injection, schedule: Q01DX009 (ip), vehicle: other) 91 % of control; (dose: 240.0 mg/kg/injection, schedule: Q01DX005 (ip), vehicle: saline) 99 % of control.
On to `CC(C)N1CCSC1=S`, for which the T/C under setting [8] was 104 % of control; the T/C under setting [9] is 90 % of control; the T/C (dose: 200.0 mg/kg/injection, schedule: Q01DX009 (ip), vehicle: saline with Tween-80) was 100 % of control.
